Data as given in patent US20230172921A1, “LERIGLITAZONE FOR TREATING LUNG INFLAMMATION AND INTERSTITIAL LUNG DISEASE” (Minoryx Therapeutics S.L., priority 2020, published 2023).
Values joined by “and” are separate entries in the source; they are usually repeats but may differ in a detail not shown here. Equal values may be shown once. Where a name gives a salt, the structure may show the parent alone.

Assays:
[1] = test system: Macrophages exposed to SARS-CoV-2; assay: Cytokine production in macrophages in the presence of SARS-CoV-2 (Luminex); format: cell-based; conditions: macrophages exposed to SARS-CoV-2, supernatant 24 h post-infection
[2] = Unbound fraction in human plasma; format: in vitro ADME
[3] = test system: LPS induced acute lung injury (ALI) model; assay: LPS induced acute lung injury model in mouse; format: in vivo; conditions: for CD45+ % Decrease vs vehicle / CD45+ Mean / IL-6 % Decrease vs vehicle / IL-6 Mean / IL-12p40 % Decrease vs vehicle / IL-12p40 Mean / IP-10 % Decrease vs vehicle / IP-10 Mean / MIG % Decrease vs vehicle / MIG Mean / Neutrophils % Decrease vs vehicle / Neutrophils Mean / RANTES % Decrease vs vehicle / RANTES Mean / T cells % Decrease vs vehicle / T cells Mean / TNF % Decrease vs vehicle / TNF Mean / Total Protein in BALF % Decrease vs vehicle / Total Protein in BALF Mean: BALF Day 3; for decrease in neutrophil recruitment in the alveoli / decrease in neutrophil recruitment in the interstitium / reduction in mononuclear cell infiltration in the perivascular/peribronchiolar space / reduction of septal thickening in the alveoli: lung H&E histopathology score; for decrease in neutrophil recruitment in the alveoli / decrease in neutrophil recruitment in the interstitium / reduction in mononuclear cell infiltration in the perivascular/peribronchiolar space: FIG. 21; for reduction of septal thickening in the alveoli: FIG. 22
Experimental: Table 2 summarizes the groups tested in the LPS induced acute lung injury (ALI) model study in mice. [table] Briefly, C57Bl/6 7-8 week old mice were exposed to lipopolysaccharide (LPS) oral aspiration (5 mg/Kg). The animals were treated orally with either vehicle, M3 (50 mg/Kg, or MIN-102 at different doses 25 and 50 mg/Kg) bid from Day −1 to Day 2, 6-8 h apart and QD on Day 3 1 h before euthanasia. On Day 3 protein content, cytokine assessment and leukocyte count by FACS analysis were performed in the bronchoalveolar lavage fluid (BALF). The results are shown in FIGS. 11-20, and Tables 3 and 4. The lungs were collected, embedded and processed for H&E histology.

[4] = Lung/blood distribution ratio in rat; format: in vivo; conditions: lung and blood
[5] = maximal over doses 25 and 50 mg/kg, BALF

SMILES: CC(O)c1ccc(CCOc2ccc(CC3SC(=O)NC3=O)cc2)nc1 (racemic) [MIN-102, 5-[[4-[2-[5-(1-hydroxyethyl)pyridin-2-yl]ethoxy]phenyl]methyl]-1,3-thiazolidine-2,4-dione hydrochloride]
- effect on IL2 secretion [1]: No effect
- effect on IL7 secretion [1]: No effect
- reduction of MIP1-α secretion [1]: 90%
- Unbound % in Plasma (human) [2]: 3.5%
- CD45+ % Decrease vs vehicle ([3]; 25 mg/kg PO BID): 52.36%
- CD45+ Mean ([3]; 25 mg/kg PO BID): 462941 cells/ml BALF
- IL-6 % Decrease vs vehicle ([3]; 25 mg/kg PO BID): 76.17%
- IL-6 Mean ([3]; 25 mg/kg PO BID): 116.2 pg/mL
- IL-12p40 % Decrease vs vehicle ([3]; 25 mg/kg PO BID): 55.14%
- IL-12p40 Mean ([3]; 25 mg/kg PO BID): 15.48 pg/mL
- IP-10 % Decrease vs vehicle ([3]; 25 mg/kg PO BID): 47.55%
- IP-10 Mean ([3]; 25 mg/kg PO BID): 627.6 pg/mL
- MIG % Decrease vs vehicle ([3]; 25 mg/kg PO BID): 50.52%
- MIG Mean ([3]; 25 mg/kg PO BID): 1369 pg/mL
- Neutrophils % Decrease vs vehicle ([3]; 25 mg/kg PO BID): 56.41%
- Neutrophils Mean ([3]; 25 mg/kg PO BID): 280504 cells/ml BALF
- RANTES % Decrease vs vehicle ([3]; 25 mg/kg PO BID): 61.57%
- RANTES Mean ([3]; 25 mg/kg PO BID): 21.68 pg/mL
- T cells % Decrease vs vehicle ([3]; 25 mg/kg PO BID): 43.43%
- T cells Mean ([3]; 25 mg/kg PO BID): 20898 cells/ml BALF
- TNF % Decrease vs vehicle ([3]; 25 mg/kg PO BID): 59.19%
- TNF Mean ([3]; 25 mg/kg PO BID): 12.85 pg/mL
- Total Protein in BALF % Decrease vs vehicle ([3]; 25 mg/kg PO BID): 46.00%
- Total Protein in BALF Mean ([3]; 25 mg/kg PO BID): 245.3 µg/mL
- CD45+ % Decrease vs vehicle ([3]; 50 mg/kg PO BID): 49.83%
- CD45+ Mean ([3]; 50 mg/kg PO BID): 487506 cells/ml BALF
- IL-6 % Decrease vs vehicle ([3]; 50 mg/kg PO BID): 87.13%
- IL-6 Mean ([3]; 50 mg/kg PO BID): 62.78 pg/mL
- IL-12p40 % Decrease vs vehicle ([3]; 50 mg/kg PO BID): 71.41%
- IL-12p40 Mean ([3]; 50 mg/kg PO BID): 9.868 pg/mL
- IP-10 % Decrease vs vehicle ([3]; 50 mg/kg PO BID): 55.42%
- IP-10 Mean ([3]; 50 mg/kg PO BID): 731.5 pg/mL
- MIG % Decrease vs vehicle ([3]; 50 mg/kg PO BID): 73.18%
- MIG Mean ([3]; 50 mg/kg PO BID): 741.7 pg/mL
- Neutrophils % Decrease vs vehicle ([3]; 50 mg/kg PO BID): 57.85%
- Neutrophils Mean ([3]; 50 mg/kg PO BID): 271223 cells/ml BALF
- RANTES % Decrease vs vehicle ([3]; 50 mg/kg PO BID): 79.24%
- RANTES Mean ([3]; 50 mg/kg PO BID): 11.71 pg/mL
- T cells % Decrease vs vehicle ([3]; 50 mg/kg PO BID): 42.49%
- T cells Mean ([3]; 50 mg/kg PO BID): 21245 cells/ml BALF
- TNF % Decrease vs vehicle ([3]; 50 mg/kg PO BID): 68.26%
- TNF Mean ([3]; 50 mg/kg PO BID): 10 pg/mL
- Total Protein in BALF % Decrease vs vehicle ([3]; 50 mg/kg PO BID): 49.50%
- Total Protein in BALF Mean ([3]; 50 mg/kg PO BID): 229.4 µg/mL
- decrease of total number of leukocytes (CD45 positive cells) vs vehicle group ([3]; in all doses (25 and 50 mg/kg), BALF): 50%
- decrease in neutrophil recruitment in the alveoli [3]: 53%
- decrease in neutrophil recruitment in the interstitium [3]: 48%
- reduction in mononuclear cell infiltration in the perivascular/peribronchiolar space [3]: 31%
- reduction of septal thickening in the alveoli [3]: 43%
- T cells, maximal reduction vs vehicle group [3, 5]: around 47%
- neutrophils, maximal reduction vs vehicle group [3, 5]: around 58%
- Kp [4]: 0.83

SMILES: CC(=O)c1ccc(CCOc2ccc(CC3SC(=O)NC3=O)cc2)nc1 (stereo not shown) [Compound M3, 5-[[4-[2-[5-Acetylpyridin-2-yl]ethoxy]phenyl]methyl]-1,3-thiazolidine-2,4-dione]
- CD45+ % Decrease vs vehicle ([3]; 50 mg/kg PO BID): 67% and 67.35%
- CD45+ Mean ([3]; 50 mg/kg PO BID): 317269 cells/ml BALF
- IL-6 % Decrease vs vehicle ([3]; 50 mg/kg PO BID): 96.86%
- IL-6 Mean ([3]; 50 mg/kg PO BID): 15.29 pg/mL
- IL-12p40 % Decrease vs vehicle ([3]; 50 mg/kg PO BID): 86.71%
- IL-12p40 Mean ([3]; 50 mg/kg PO BID): 4.586 pg/mL
- IP-10 % Decrease vs vehicle ([3]; 50 mg/kg PO BID): 79.17%
- IP-10 Mean ([3]; 50 mg/kg PO BID): 1045 pg/mL
- MIG % Decrease vs vehicle ([3]; 50 mg/kg PO BID): 90.75%
- MIG Mean ([3]; 50 mg/kg PO BID): 256.2 pg/mL
- Neutrophils % Decrease vs vehicle ([3]; 50 mg/kg PO BID): 72% and 72.06%
- Neutrophils Mean ([3]; 50 mg/kg PO BID): 179793 cells/ml BALF
- RANTES % Decrease vs vehicle ([3]; 50 mg/kg PO BID): 93.19%
- RANTES Mean ([3]; 50 mg/kg PO BID): 3.838 pg/mL
- T cells % Decrease vs vehicle ([3]; 50 mg/kg PO BID): 74% and 74.14%
- T cells Mean ([3]; 50 mg/kg PO BID): 9554 cells/ml BALF
- TNF % Decrease vs vehicle ([3]; 50 mg/kg PO BID): 68.26%
- TNF Mean ([3]; 50 mg/kg PO BID): 10 pg/mL
- Total Protein in BALF % Decrease vs vehicle ([3]; 50 mg/kg PO BID): 63% and 63.24%
- Total Protein in BALF Mean ([3]; 50 mg/kg PO BID): 167 µg/mL
- reduction of B cells ([3]; 50 mg/kg, BALF): 52%
- decrease in neutrophil recruitment in the alveoli [3]: 64%
- decrease in neutrophil recruitment in the interstitium [3]: 62%
- reduction in mononuclear cell infiltration in the perivascular/peribronchiolar space [3]: 40%
- reduction of septal thickening in the alveoli [3]: 79%

SMILES: CCc1ccc(CCOc2ccc(CC3SC(=O)NC3=O)cc2)nc1 (stereo not shown) [Pioglitazone, reference compound]
- Unbound % in Plasma (human) [2]: 0.2%
- Kp [4]: 0.3
